As usually defined, the IC50 is the midpoint of a concentration-inhibition curve. Low values mean inhibition by little substance, high ones a need for much substance.

Experiment [1] concerns the target T1, human P-Selectin-IgG-chimera (Homo sapiens, UniProt P16109). As to the kind of experiment: Sialyl Lewis X Tyrosine Sulfate Assay (sLex TSA), P-selectin. Also on record: IgG (chimera partner). The settings on record: inhibition of binding of sLex-tyrosine sulfate polyacrylamide ligand complex to selectin chimera. How it is done:
(§1) Compounds of the present invention are assayed on a molecular level for their ability to inhibit the binding of P-, L-, or E-selectin chimeric molecules to sLe^x and tyrosinesulfate residues linked to a polymeric matrix as a PSGL-1 substitute. Selected IC50-values are determined.
(§2) Microtiter plates are coated overnight in carbonate buffer pH9.6 with goat anti human Fc mAB (10 μg/ml). After washing in assay buffer (25 mM 4-(2-hydroxyethyl)-1-piperazineethanesulfonic acid (HEPES), 150 mM NaCl, 1 mM CaCl2 pH7.4) and blocking (3% bovine serum albumin (BSA) in assay buffer) plates are incubated for 2 h at 37° C. with human P-Selectin-IgG-chimera (0.61 nM respectively 150 ng/mL) or human L-Selectin-IgG-chimera (0.61 nM respectively 89 ng/mL) or human E-Selectin-IgG-chimera (0.61 nM respectively 131 ng/mL). 5 μl of sLe^x-tyrosine sulfate polyacrylamide (1 mg/ml) carrying 15% sLe^x, 10% Tyrosine-sulfate and 5% biotin is complexed with 20 μl Streptavidin-Peroxidase solution (1 mg/ml) and 25 μl assay buffer without CaCl2. For use in the assay, the ligand complex is diluted 1:10000 in assay buffer and further diluted 1:1 with varying amounts of compounds in assay buffer incl. 2% DMSO. This mixture is added to the wells precoated with E- or P-selectin. After incubation for 2 h at 37° C., wells are washed for six times with in assay buffer incl. 0.005% Polyoxyethylenesorbitan monolaurate (TWEEN 20), developed for 10-15 min with 20 μl 3,3′,5,5′-tetramethylbenzidine (TMB)/H2O2 substrate solution and stopped with 20 μl 1M H2SO4. Bound sLe^x-Tyrosine sulfate ligand complex is determined by measuring optical density at 450 nm vs. 620 nm in a Fusion alpha-FP reader (sold from Packard Bioscience, Dreieich, Germany).

Experiment [2] addresses T2, human L-Selectin-IgG-chimera (Homo sapiens, UniProt P14151).
T2 construct: IgG (chimera partner)
As to the kind of experiment: Sialyl Lewis X Tyrosine Sulfate Assay (sLex TSA), L-selectin. To be noted: inhibition of binding of sLex-tyrosine sulfate polyacrylamide ligand complex to selectin chimera. How it is done:
as §1, §2

For experiment [3], the target named is T3, human E-Selectin-IgG-chimera (Homo sapiens, UniProt P16581). The experiment is described as follows: Sialyl Lewis X Tyrosine Sulfate Assay (sLex TSA), E-selectin. Also on record: IgG (chimera partner). The settings on record: inhibition of binding of sLex-tyrosine sulfate polyacrylamide ligand complex to selectin chimera. On the procedure:
as §1, §2

Experiment [4] has as its target T1, human P-Selectin-IgG-chimera. As to the kind of experiment: Flow chamber assay, cell adhesion and rolling under flow conditions, P-selectin. The class given is cell-based. The settings on record: 125 μM compound, HL-60 cells, flow shear 1 dyne/cm^2, dish coated 10 μg/ml P-selectin-IgG chimera. On the procedure:
(§3) Flow Chamber Assay/Cell Adhesion and Rolling Under Flow Conditions
(§4) To assess the capability of compounds to inhibit cell binding under dynamic conditions resembling the flow in a blood vessel, flow chamber assays addressing/testing binding of HL-60 cells/various cell lines to P-selectin, L-selectin and E-selectin chimeric molecules are performed.
(§5) Cell attachment under flow conditions are determined using a parallel flow chamber system. A 35 mm polystyrene culture dish is coated for 1 hour at room temperature with coating buffer (50 mM tris-(hydroxymethyl)aminomethane buffer (Tris), 150 mM NaCl, 2 mM CaCl2; pH 7.4) containing human E- or P-selectin-IgG chimera at concentrations of 2.5 μg/ml or 10 μg/ml, respectively. After removal of the coating solution non specific binding sites are blocked for an additional hour with 1% BSA in coating buffer at room temperature. After washing with assay buffer (“Roswell Park Memorial Institute 1640” (RPMI 1640)+10 mM HEPES) the dish is fitted into a parallel plate laminar flow chamber (sold from Glycotech, Rockville, Md.) and mounted on an inverted phase-contrast microscope (sold from Olympus, Hamburg, Germany) equipped with a CCD camera (JVC) that is connected to a PC. Employing a peristaltic pump (sold from Ismatec, Wertheim-Mondfeld, Germany) the re-circulating system is equilibrated with assay buffer containing 125 μM compound or vehicle control (DMSO). Cells (1 million/ml) are added to the chamber and allowed to distribute for 2 minutes at a high flow rate. The flow rate is then decreased resulting in a calculated flow shear of 1 dyne/cm^2. Video sequences of 10 low power fields are digitally recorded after 5 minutes continuous flow. The percentage of inhibition is calculated from the mean number of cells per field that attached to the coated dish surface in the presence versus absence of compound […].
(§6) Data from Flow Chamber Assay for E- and P-Selectin

Experiment [5] deals with T3, human E-Selectin-IgG-chimera. As to the kind of experiment: Flow chamber assay, cell adhesion and rolling under flow conditions, E-selectin. The settings on record: 125 μM compound, HL-60 cells, flow shear 1 dyne/cm^2, dish coated 2.5 μg/ml E-selectin-IgG chimera. The class given is cell-based. On the procedure:
as §3, §4, §5, §6

T2 sequence (P14151 with tags, fused parts or gaps limits assumed): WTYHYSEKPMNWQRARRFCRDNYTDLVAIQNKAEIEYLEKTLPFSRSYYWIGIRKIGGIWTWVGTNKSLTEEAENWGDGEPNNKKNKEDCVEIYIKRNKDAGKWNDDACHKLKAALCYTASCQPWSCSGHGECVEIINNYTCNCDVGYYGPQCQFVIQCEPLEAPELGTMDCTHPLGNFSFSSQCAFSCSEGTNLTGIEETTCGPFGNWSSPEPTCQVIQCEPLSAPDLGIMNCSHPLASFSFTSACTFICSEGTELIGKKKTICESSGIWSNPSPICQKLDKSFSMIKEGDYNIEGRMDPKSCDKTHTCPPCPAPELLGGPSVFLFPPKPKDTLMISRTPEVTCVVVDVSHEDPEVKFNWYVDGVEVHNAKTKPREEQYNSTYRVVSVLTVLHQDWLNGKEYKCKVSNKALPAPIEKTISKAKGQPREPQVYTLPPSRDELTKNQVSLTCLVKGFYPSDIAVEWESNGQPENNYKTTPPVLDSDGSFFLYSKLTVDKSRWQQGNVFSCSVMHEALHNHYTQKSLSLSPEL
T1 sequence (P16109 with tags, fused parts or gaps limits assumed): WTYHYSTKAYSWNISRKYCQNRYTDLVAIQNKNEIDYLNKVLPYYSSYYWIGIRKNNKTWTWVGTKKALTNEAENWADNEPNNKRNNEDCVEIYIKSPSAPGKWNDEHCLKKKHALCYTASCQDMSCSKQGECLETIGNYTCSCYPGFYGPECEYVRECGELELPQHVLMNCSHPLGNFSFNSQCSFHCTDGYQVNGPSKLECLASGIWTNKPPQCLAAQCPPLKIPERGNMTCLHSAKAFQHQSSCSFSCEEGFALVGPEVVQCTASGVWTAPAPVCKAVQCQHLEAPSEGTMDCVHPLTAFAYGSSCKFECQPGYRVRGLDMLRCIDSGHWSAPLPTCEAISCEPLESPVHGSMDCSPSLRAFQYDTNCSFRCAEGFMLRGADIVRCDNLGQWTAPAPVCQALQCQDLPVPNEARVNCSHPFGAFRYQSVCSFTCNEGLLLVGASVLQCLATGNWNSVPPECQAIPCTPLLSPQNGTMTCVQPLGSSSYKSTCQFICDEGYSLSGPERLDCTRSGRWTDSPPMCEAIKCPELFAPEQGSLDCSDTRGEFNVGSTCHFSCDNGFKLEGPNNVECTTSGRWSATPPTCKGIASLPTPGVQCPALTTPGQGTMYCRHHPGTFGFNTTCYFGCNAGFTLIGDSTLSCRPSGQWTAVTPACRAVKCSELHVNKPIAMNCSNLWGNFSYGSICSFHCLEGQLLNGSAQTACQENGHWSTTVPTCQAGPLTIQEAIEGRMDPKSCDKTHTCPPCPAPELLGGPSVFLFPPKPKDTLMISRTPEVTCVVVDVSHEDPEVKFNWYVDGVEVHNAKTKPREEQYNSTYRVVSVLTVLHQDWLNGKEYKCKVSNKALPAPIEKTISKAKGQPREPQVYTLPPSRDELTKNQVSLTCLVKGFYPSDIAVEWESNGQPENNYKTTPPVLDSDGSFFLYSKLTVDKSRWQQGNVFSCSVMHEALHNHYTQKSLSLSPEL
T3 sequence (P16581 with tags, fused parts or gaps limits assumed): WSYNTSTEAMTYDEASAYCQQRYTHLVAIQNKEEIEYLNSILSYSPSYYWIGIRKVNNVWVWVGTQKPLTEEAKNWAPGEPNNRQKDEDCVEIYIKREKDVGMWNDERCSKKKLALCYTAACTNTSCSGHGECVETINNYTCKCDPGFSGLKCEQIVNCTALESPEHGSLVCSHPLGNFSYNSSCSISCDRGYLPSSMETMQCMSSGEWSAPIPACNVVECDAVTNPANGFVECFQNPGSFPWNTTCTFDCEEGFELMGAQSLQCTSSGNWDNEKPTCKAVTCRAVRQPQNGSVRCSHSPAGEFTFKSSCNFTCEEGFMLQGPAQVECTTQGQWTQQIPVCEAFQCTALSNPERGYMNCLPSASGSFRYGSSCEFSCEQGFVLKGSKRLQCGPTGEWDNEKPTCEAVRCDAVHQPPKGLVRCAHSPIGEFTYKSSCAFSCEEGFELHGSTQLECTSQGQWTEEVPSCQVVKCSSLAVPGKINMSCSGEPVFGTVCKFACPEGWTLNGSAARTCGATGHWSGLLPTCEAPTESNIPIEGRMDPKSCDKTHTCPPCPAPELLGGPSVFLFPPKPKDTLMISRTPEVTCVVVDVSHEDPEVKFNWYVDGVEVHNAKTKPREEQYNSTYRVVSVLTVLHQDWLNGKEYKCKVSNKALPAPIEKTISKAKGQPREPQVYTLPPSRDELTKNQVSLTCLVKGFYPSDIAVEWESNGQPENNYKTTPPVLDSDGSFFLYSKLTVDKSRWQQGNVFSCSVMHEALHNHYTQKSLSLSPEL

Take `O=C(O)Cc1ccc(-c2ccccc2NC(=O)c2cccc(-c3c(O)cc(O)cc3O)c2)s1` [Compound 63, (5-{2-[(2′,4′,6′-Trihydroxy-biphenyl-3-carbonyl)-amino]-phenyl}-thiophen-2-yl)-acetic acid]: the IC50 was found to be 17.4 µM in experiment [1], 17.4 µM in experiment [2] and 21.9 µM in experiment [3]. For the same compound, the “P-Selectin [Ratio]: normalized ratio of %-inhibition of compound divided by %-inhibition of bimosiamose” value in experiment [4] came to 0.87 Ratio. Further, the “E-Selectin [Ratio]: normalized ratio of %-inhibition of compound divided by %-inhibition of bimosiamose” value in experiment [5] stood at 1.23 Ratio.
As to `O=C(Nc1cccc(C(F)(F)F)c1)c1cccc(-c2c(O)cc(O)cc2O)c1` [Compound 66, 2′,4′,6′-Trihydroxy-biphenyl-3-carboxylic acid (3-trifluoromethyl-phenyl)-amide], the “P-Selectin [Ratio]: normalized ratio of %-inhibition of compound divided by %-inhibition of bimosiamose” value in experiment [4] was found to be 1.19 Ratio. The “E-Selectin [Ratio]: normalized ratio of %-inhibition of compound divided by %-inhibition of bimosiamose” value in experiment [5] was 1.47 Ratio.
With `Cc1oc(-c2ccc(NC(=O)Cc3c(O)cc(O)cc3O)cc2)cc1C(=O)O` [Compound 19, 2-Methyl-5-{4-[2-(2,4,6-trihydroxy-phenyl)-acetylamino]-phenyl}-furan-3-carboxylic acid], the IC50 was determined as 20.7 µM in experiment [1], 22.1 µM in experiment [2] and 12.4 µM in experiment [3]. Further, the “P-Selectin [Ratio]: normalized ratio of %-inhibition of compound divided by %-inhibition of bimosiamose” value in experiment [4] is given as 1.27 Ratio. The “E-Selectin [Ratio]: normalized ratio of %-inhibition of compound divided by %-inhibition of bimosiamose” value in experiment [5] is on record as 0.75 Ratio.
Consider `Cc1oc(-c2ccc(NC(=O)c3cccc(-c4c(O)cc(O)cc4O)c3)cc2)cc1C(=O)O` [Compound 60, 2-Methyl-5-{4-[(2′,4′,6′-trihydroxy-biphenyl-3-carbonyl)-amino]-phenyl}-furan-3-carboxylic acid], for which the IC50 in experiment [1] turned out to be 5.2 µM; in experiment [2], 6.1 µM; in experiment [3], 7.8 µM. Moreover, the “P-Selectin [Ratio]: normalized ratio of %-inhibition of compound divided by %-inhibition of bimosiamose” value in experiment [4] is 0.99 Ratio. Besides, in experiment [5], the “E-Selectin [Ratio]: normalized ratio of %-inhibition of compound divided by %-inhibition of bimosiamose” value is 1.05 Ratio.
For `O=C(O)Cc1ccc(-c2cccc(NC(=O)c3cccc(-c4c(O)cc(O)cc4O)c3)c2)s1` [Compound 64, (5-{3-[(2′,4′,6′-trihydroxy-biphenyl-3-carbonyl)-amino]-phenyl}-thiophen-2-yl)-acetic acid], the IC50 in experiment [1] turned out to be 6 µM; in experiment [2], 6.3 µM; in experiment [3] it was 5.7 µM. Further, the “P-Selectin [Ratio]: normalized ratio of %-inhibition of compound divided by %-inhibition of bimosiamose” value in experiment [4] was found to be 1.23 Ratio. For the same compound, in experiment [5], the “E-Selectin [Ratio]: normalized ratio of %-inhibition of compound divided by %-inhibition of bimosiamose” value was 1.06 Ratio.
In the case of `O=C(Nc1ccccc1-c1ccc(C(=O)O)s1)c1cccc(-c2c(O)cc(O)cc2O)c1` [Compound 26, 5-{2-[(2′,4′,6′-trihydroxy-biphenyl-3-carbonyl)-amino]-phenyl}-thiophene-2-carboxylic acid], the IC50 came to 27.8 µM in experiment [1], 28.2 µM in experiment [2] and 33.3 µM in experiment [3]. The “P-Selectin [Ratio]: normalized ratio of %-inhibition of compound divided by %-inhibition of bimosiamose” value in experiment [4] is reported as 0.77 Ratio. Further, the “E-Selectin [Ratio]: normalized ratio of %-inhibition of compound divided by %-inhibition of bimosiamose” value in experiment [5] is reported as 1.11 Ratio.
On to `O=C(Cc1c(O)cc(O)cc1O)Nc1cccc(C(=O)O)c1` [Compound 18, 3-[2-(2,4,6-Trihydroxy-phenyl)-acetylamino]-benzoic acid], for which the IC50 in experiment [1] is 37.1 µM; in experiment [2], 35.1 µM; in experiment [3], 41.2 µM. Also, the “P-Selectin [Ratio]: normalized ratio of %-inhibition of compound divided by %-inhibition of bimosiamose” value in experiment [4] came out at 1.07 Ratio. In addition, in experiment [5], the “E-Selectin [Ratio]: normalized ratio of %-inhibition of compound divided by %-inhibition of bimosiamose” value worked out at 0.80 Ratio.
The like results for `O=C(O)Cc1ccc(-c2ccccc2NC(=O)Cc2c(O)cc(O)cc2O)s1` [Compound 25, (5-{2-[2-(2,4,6-Trihydroxy-phenyl)-acetylamino]-phenyl}-thiophen-2-yl)-acetic acid] were, in that order, 87.9 µM, 95.9 µM, 105 µM, 1.65 Ratio and 0.94 Ratio.
Take `O=C(O)Cc1cccc(-c2cc(CCCCCCc3ccc(O[C@H]4O[C@H](CO)[C@@H](O)[C@H](O)[C@@H]4O)c(-c4cccc(CC(=O)O)c4)c3)ccc2O[C@H]2O[C@H](CO)[C@@H](O)[C@H](O)[C@@H]2O)c1` [Bimosiamose, bimosiamose, reference compound]: in experiment [2], the IC50 was over 500 µM.
Take `O=C(O)c1cccc(NC(=O)c2cccc(-c3c(O)cc(O)cc3O)c2)c1` [Compound 67, 3-[(2′,4′,6′-Trihydroxy-biphenyl-3-carbonyl)-amino]-benzoic acid]: the IC50 in experiment [1] stood at 23.3 µM; in experiment [2], 25.2 µM; in experiment [3] it was 27.3 µM. Further, in experiment [4], the “P-Selectin [Ratio]: normalized ratio of %-inhibition of compound divided by %-inhibition of bimosiamose” value was determined as 0.95 Ratio. Also, the “E-Selectin [Ratio]: normalized ratio of %-inhibition of compound divided by %-inhibition of bimosiamose” value in experiment [5] was determined as 0.79 Ratio.
For `O=C(Nc1ccccc1-c1cccs1)c1cccc(-c2c(O)cc(O)cc2O)c1` [Compound 65, 2′,4′,6′-Trihydroxy-biphenyl-3-carboxylic acid (2-thiophen-2-yl-phenyl)-amide], the figures for the IC50 in experiment [1], in experiment [2] and in experiment [3] were 8.2 µM, 15.5 µM and 28.1 µM, respectively. The “P-Selectin [Ratio]: normalized ratio of %-inhibition of compound divided by %-inhibition of bimosiamose” value in experiment [4] is 0.99 Ratio. Also, the “E-Selectin [Ratio]: normalized ratio of %-inhibition of compound divided by %-inhibition of bimosiamose” value in experiment [5] is listed as 1.13 Ratio.

For the origin of these results see US7919532B2, “Hydroxylated aromatic compounds” (Revotar Biopharmaceuticals AG, priority 2005, dated 2011).
